Results taken from patent US20220273658A1, “SMALL MOLECULE LIVER X RECEPTOR MODULATORS AND USES THEREOF” (University of Houston System, priority 2019, published 2022).

Assays:
[1] = system: LXR-LBD; experiment: differential scanning fluorimetry; assay type: binding
From the text: (§1) The synthesis and characterization of KD-01-39, a derivative of 3A4, have not been described previously.

[2] = system: genes involved in ferroptosis; experiment: quantitative PCR of genes involved in ferroptosis; assay type: cell-based, human
From the text: Expression profiles of ferroptosis genes in RNAseq data following 1E5 treatment were also consistent with its pro-ferroptotic actions. […] Polyamines are amino-acid derived polycationic alkylamines that are required for the growth of cells. SAT1 catalyzes the acetylation of spermidine and spermine to form N-acetylspermidine and N-acetylspermine respectively. […] SAT1 induces ferroptosis by upregulating the peroxidation of PUFA arachidonic acid. Ceramides are sphingolipids consisting of sphingosine and fatty acid acyl chain. Cellular stress leads to upregulation of ceramide synthesis which mediate caspase-dependent apoptosis. Accumulation of ceramides/hexosylceramides in the mitochondria leads to the formation of channel like structures in the mitochondrial outer membrane which increases the permeability of pro-apoptotic proteins such as cytochrome c. ER stress is also known to activate de-novo synthesis of ceramides and induce apoptosis by increasing the flow of Ca ions and upregulating the unfolded protein stress response.

[3] = system: LXR proteins in MCF-7 cells; experiment: western blot of LXR protein levels; assay type: cell-based
From the text: (§2) The inhibitory effects of LXR ligands in breast cancer cells have been shown previously. […] The observed decreases in LXR protein levels were not affected by proteasome inhibitor MG132.

[4] = system: LXR in MDA-MB-231 cells; experiment: western blot of LXR protein levels; assay type: cell-based
From the text: as §2

[5] = system: PDAC cell lines; experiment: tetrazolium salt reduction (WST) assay in PDAC cell lines; assay type: cell-based, human; conditions: WST screen, three human pancreatic cancer cell lines
Protocol: To determine the effects of LXR ligands on PDAC cell proliferation, cells were treated with synthetic LXR agonist GW3965 and live cells were quantified using trypan blue exclusion assays. […] FIGS. 8A, 8B, and 8C show dose-dependent decreases in cell proliferation in BxPC-3, Mia-PaCa-2, and PANC-1, respectively upon treatment with increasing GW3965 concentrations. […] Clonogenic assays were also employed to evaluate the effects of long-term LXR ligand treatment on cell proliferation and colony formation. […] These findings indicate that LXRs are involved in PDAC cell proliferation and targeting LXRs with ligands perturb their normal functions in cell proliferation.
(§3) The initial identification and subsequent characterization of the two novel LXR ligands and their derivative compounds was carried out in screens in three human pancreatic cancer cell and one non-transformed human pancreatic epithelial cell line in three or more replicate experiments for each cell line using the WST tetrazolium salt reduction assays.

[6] = target: T1, LXR proteins (Homo sapiens, UniProt P55055); experiment: LXR protein levels after long-term treatment of pancreatic cancer cells; assay type: cell-based; conditions: long-term treatments
T1 construct: expression of LXR proteins in different pancreatic cancer cell lines following long-term treatments; endogenous in cells; host or cells: pancreatic cancer cell lines (BxPC-3, MIA PaCa-2, PANC-1 named elsewhere)
Protocol: (§4) To elucidate mechanisms of inverse agonism by the novel ligands, TR-FRET experiments were conducted to determine the effects of 1E5 and 3A4 on the recruitment of NR co-activators and co-repressors. […] In addition to their functions as inverse agonists, extended treatments with 1E5 and 3A4 also destabilized or decreased LXR proteins.

[7] = system: LXR ligand-binding domain; experiment: TR-FRET assay of co-activator and co-repressor peptide recruitment; assay type: biochemical
Protocol: as §4, §1

[8] = system: MDA-MB-231 cells; experiment: breast cancer cell proliferation; assay type: cell-based
From the text: as §2

[9] = system: LXR target genes SREBF1c, ABCA1, and ABCG1; experiment: expression of LXR target genes in pancreatic cancer cell lines; assay type: cell-based, human
From the text: To characterize the activity of the newly discovered ligands, the expression of LXR target genes SREBF1c, ABCA1, and ABCG1 was examined following treatment with vehicle, synthetic agonist GW3965, and Compounds 1E5 and 3A4. […] Basal expression of SREBF1c, the canonical LXR target gene involved in the regulation of glucose and lipid metabolism, was disrupted by the addition of novel LXR ligands, whereas their expression was induced following treatment with synthetic agonist GW3965 in all three pancreatic cancer cell lines tested, whereas the effects on ABCA1 and ABCG1 varied between the two novel ligands and across the cell lines.
as §4

[10] = system: HPNE cells; experiment: growth of non-transformed pancreatic epithelial cells (WST screen; FIG. 32D); assay type: cell-based, human; conditions: WST screen
Protocol: as §3, §1

[11] = system: PDAC cells; experiment: pro-apoptotic caspase cleavage analysis; assay type: cell-based, human
Protocol: To determine if 1E5 and 3A4 can induce apoptosis, PDAC cells were treated with the LXR ligands and subjected to pro-apoptotic caspase cleavage analysis. […] Metabolomic profiling following treatments with the two ligands indicated the activation of two distinct cell death mechanisms. Ferroptosis is a non-apoptotic form of cell death which is characterized by accumulation of lipid peroxides by loss of glutathione peroxidase 4 (GPX4) activity. It can also be induced by accumulation of intracellular iron and depletion of reduced glutathione (GSH). GPX4 is an anti-oxidant enzyme involved in conversion of PUFA peroxides to PUFA alcohols. GSH is a critical cofactor of GPX4 and acts as a reducing agent to reduce the lipid peroxides. Therefore, direct inhibition of GPX4 activity or reduction in GSH levels trigger ferroptosis. The second mechanism of inducing ferroptosis is accumulation of polyunsaturated fatty acids (PUFAs) in cells. Studies have shown that PUFAs are the most susceptible lipids to peroxidation.
Accumulation of C18 ceramides in the mitochondria leads to the recruitment of auto phagosomes in mitochondria and induces LC3-ceramide dependent lethal mitophagy. […] Darkened circles indicate increases and the size of the circle corresponds to the significance of changes.

[12] = system: MDA-MB-231; experiment: expression of LXR target genes in breast cancer cells; assay type: cell-based; conditions: MDA-MB-231, triple-negative
From the text: as §2

[13] = system: MCF-7; experiment: as above; assay type: cell-based; conditions: MCF-7, ER-positive
From the text: as §2

[14] = system: KPC tumor cells; experiment: growth of KPC tumor cells from mouse model of PDAC; assay type: cell-based
From the text: The effects of the ligands and derivatives on the growth of PDAC cells were further validated by cell counting and clonogenic assays.

T1 sequence (P55055 whole entry): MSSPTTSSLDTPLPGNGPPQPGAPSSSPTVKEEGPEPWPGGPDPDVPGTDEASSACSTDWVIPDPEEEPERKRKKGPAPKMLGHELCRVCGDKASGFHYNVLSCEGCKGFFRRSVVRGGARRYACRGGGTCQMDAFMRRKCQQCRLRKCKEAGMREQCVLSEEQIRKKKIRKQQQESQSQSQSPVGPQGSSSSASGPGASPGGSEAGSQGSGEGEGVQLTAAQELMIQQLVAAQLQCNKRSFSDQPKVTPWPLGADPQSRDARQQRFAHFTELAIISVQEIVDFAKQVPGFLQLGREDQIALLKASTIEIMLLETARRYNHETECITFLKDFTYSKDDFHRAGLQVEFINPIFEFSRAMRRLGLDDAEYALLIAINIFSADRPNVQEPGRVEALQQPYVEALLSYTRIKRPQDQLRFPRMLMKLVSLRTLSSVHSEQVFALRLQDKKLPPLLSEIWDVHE

Question: What does the source list for `O=c1cc(-c2ccccc2)nc(Nc2cccc(C(F)(F)F)c2)[nH]1` [Compound 1E5, 6-phenyl-2-{[3-(trifluoromethyl)phenyl]amino}-3,4-dihydropyrimidin-4-one]?
Answer: LXR-LBD structure and dye dissociation with increasing temperature [1]: disrupted the LBD structure; expression of GPX4 and other negative regulators of ferroptosis (STMN1, RRM2) [2]: decreased the expression; expression of SAT1 [2]: increases the expression; LXR protein levels (degradation) [3]: act as degraders of LXR proteins; LXR protein levels (degradation) [4]: degraded LXR; human pancreatic cancer cells growth [5]: effective in inhibiting human pancreatic cancer cells growth; LXR protein levels [6]: decreased LXR protein levels; co-activator peptide binding to LXR ligand-binding domain ([7]; co-activator (D22) peptide): did not affect co-activator peptide binding; binding of NCOR and SMRT co-repressor peptides ([7]; co-repressor (NCOR and SMRT-ID2) peptides): increased the binding; proliferation of MDA-MB-231 cells [8]: inhibited; basal expression of SREBF1c ([9]; all three pancreatic cancer cell lines): disrupted; expression of FASN, SCD, and ACC ([9]; pancreatic cancer cells): decreased the expression; expression of LXR target genes ([9]; three pancreatic cancer cell lines): reducing the expression of LXR target genes; activity against non-transformed HPNE cells [10]: little activity; pro-apoptotic caspase cleavage [11]: did not; expression of LXR target genes [12]: generally down-regulated; expression of LXR target genes [13]: generally down-regulated; growth of KPC tumor cells [14]: blocked the growth
